Measured values taken from patent publication US7645603B2, “Cells having cardiac glycoside resistance” (Avaris AB, priority 2003, dated 2010).

Experiments:
HeLa cells [1] = test: Ouabain toxicity assay, transiently transfected HeLa cells, cell viability; assay type: cell-based, human; conditions: 10 μM ouabain
Procedure: HeLa cells (ATCC, Manassas, Va.) were cultured in DMEM Glutamax with 10% heat-inactivated fetal bovine serum (FBS). For transfections, Fugene 6 reagent (Roche Boehringer Mannheim, Germany) was used according to manufacturer's description. Briefly, 2 μg of plasmid DNA per 10^5 cells were complexed with 5 μl of the reagent in a 100 μl volume of cell culture medium and added to cells after 15 min of incubation. After 24 h, ouabain was added to each well to a final concentration of 10 μM. Cell viability was documented following 24 h incubation.
(§1) For transfections, Fugene 6 reagent (Roche Boeringer Mannheim, Germany) was used according to the manufacturer's instructions. Briefly, 2 μg of plasmid DNA per 10^5 cells were complexed with 5 μl of the reagent in a 100 μl volume of cell culture medium DMEM Glutamax and added to cells after 15 min of incubation. Ouabain (Sigma, St. Louis, Mo., USA) was dissolved in DMEM as a stock solution of 10 mM. For selection experiments 10-500 μM was used. Ouabain was added to the cells at 24 h after transfection. At 48 hours post transfection the cells were trypsinized and transferred to ouabain-free medium. Cell survival was quantified spectrophoto-metrically using the WST-1 cell proliferation reagent (Roche) according to the manufacturer's instructions.

COS-7 cells = test: Ouabain toxicity assay, transiently transfected COS-7 cells, cell viability; assay type: cell-based; conditions: wild type COS-7, 10 μM ouabain
Procedure: COS-7 cells (ATCC, Manassas, Va.) were cultured and transfected as above. After 48 h incubation in 10 μM ouabain, the cells were washed twice in PBS (Gibco) and incubated for 15 min in 0.025% porcine trypsine in saline (Sigma). The trypsin was inactivated by FBS addition. The cells were re-incubated in 10 μM ouabain. Cell viability was documented following 48 h incubation.

HeLa cells [2] = test: Ouabain dose response assay in transfected HeLa cells, WST-1 cell proliferation reagent; assay type: cell-based, human; conditions: 10-500 μM ouabain, 24 hours
Procedure: as §1

C[C@@H]1O[C@@H](O[C@H]2C[C@@H](O)[C@]3(CO)[C@H]4[C@H](O)C[C@]5(C)[C@@H](C6=CC(=O)OC6)CC[C@]5(O)[C@@H]4CC[C@]3(O)C2)[C@H](O)[C@H](O)[C@H]1O [ouabain]
ouabain induced cell death of wild type cells (HeLa cells [1]): induces cell death | ouabain induced cell death of wild type cells (COS-7 cells): induces cell death | effect of ouabain on control and un-transfected cells (WST-1) (HeLa cells [2]): eliminated
